Experimental data as given in publication PMC4749642, “Evaluation of anticonvulsant and antinociceptive properties of new N-Mannich bases derived from pyrrolidine-2,5-dione and 3-methylpyrrolidine-2,5-dione” (Naunyn-Schmiedeberg's Archives of Pharmacology, 2015).
Values joined by “and” are separate entries in the source; they are usually repeats but may differ in a detail not shown here. Identical values can stand only once. Marks after values point to notes of the source that are not given here.

Key:
mice [1] = test: Pilocarpine-induced seizure test; type: in vivo, mouse
Experimental: (§1) Male CD-1 mice weighing 18–24 g were used in the in vivo experiment. The animals were kept at room temperature of 20 ± 2 °C under standard conditions (12:12 h light-dark cycle, standard pellet diet, tap water). All the experiments were performed between 8 a.m. and 3 p.m. For the experiments, the animals were selected in a random way and sacrificed by cervical dislocation immediately after the assay. The experimental protocol was approved by the Local Ethics Commission for Animal Experiments of the Jagiellonian University in Cracow, and all experiences were conducted in accordance with the 1996 NIH Guide for the Care and Use of Laboratory Animals.
(§2) The tested compounds 12 (N-[{4-(3,4-dichlorophenyl)-piperazin-1-yl}-methyl]-3-methylpyrrolidine-2,5-dione), 13 (N-[{4-(3-trifluoromethylphenyl)-piperazin-1-yl}-methyl]-3-methylpyrrolidine-2,5-dione), 15 (N-[{4-(3-methylphenyl)-piperazin-1-yl}-methyl]-3-methylpyrrolidine-2,5-dione), 23 (N-[{4-(3,4-dichlorophenyl)-piperazin-1-yl}-methyl]-pyrrolidine-2,5-dione), and 24 (N-[{4-(3-trifluoromethylphenyl)-piperazin-1-yl}-methyl]-pyrrolidine-2,5-dione) were synthesized at the Department of Medicinal Chemistry, Jagiellonian University Medical College in Cracow (Scheme 1). The synthesis of the investigated compounds was described earlier (Rybka et al. [2014]). The investigated compounds were suspended in a 0.5 % aqueous solution of methylcellulose (Loba Chemie, Germany). Lacosamide (Vimpat, UCB Pharma, Belgium), pilocarpine (Sigma-Aldrich, Germany), scopolamine butylbromide (Sigma-Aldrich, Germany), and formaldehyde (POCh, Poland) were dissolved in distilled water. Agents were administered intraperitoneally (i.p.) at a volume of 0.1 ml/10 g. Control animals were administered an equivalent volume of vehicle (0.5 % aqueous solution of methylcellulose) via the same route as the test compounds.
The experimental procedure was originally described by Turski et al. ([1987]). Seizures were induced in mice by i.p. injection of pilocarpine at a dose of 400 mg/kg. Forty-five minutes before pilocarpine, animals were also pretreated with scopolamine butylbromide (1 mg/kg, i.p.) to reduce peripheral autonomic side effects and masticatory and stereotyped movements (Kowalczyk et al. [2014]). Direct observation was performed for 60 min to monitor the latency time to the onset of the limbic seizures, characterized by a subsequent development of behavioral symptoms, such as tremor, head bobbing, and myoclonic movements of the forelimbs progressing to recurrent myoclonic convulsions with rearing, salivation, falling, and status epilepticus (Łuszczki et al. [2008]; Turski [2000]).

mice [2] = test: Formalin hind paw test; type: in vivo, mouse; conditions: dose 30 mg/kg i.p.; for reduction of the duration of the licking response, first (neurogenic) phase: 0–5 min after 5 % formalin; for antinociceptive effect (reduction of licking response), second (late) phase: 15–30 min after 5 % formalin
Experimental: as §1, §2
Antinociceptive activity in the formalin hind paw test was examined according to Laughlin et al. ([2002]). Twenty microliters of a 5 % formalin solution was injected intraplantarly (i.pl.) into the right hind paw of the mouse. […] Time (in seconds) spent on licking or biting the injected hind paw in selected intervals, 0–5 and 15–30 min, was measured in each experimental group and was an indicator of nociceptive behavior. In mice, intraplantarly injection of diluted formalin produces a biphasic nocifensive behavioral response (i.e., licking or biting the injected hind paw). The acute nociceptive phase lasts for the first 5 min, whereas the second inflammatory phase occurs between 15 and 30 min after formalin injection.

mice [3] = test: Spontaneous locomotor activity (photoresistor actometers); type: in vivo, mouse
Experimental: as §1, §2
Locomotor activity was measured with photoresistor actometers (Ugo Basile, Italy) connected to a counter for the recording of light-beam interruptions. Mice were individually placed in plastic cages for 30 min habituation period, and then the number of light-beam crossings was counted for a 30-min session. The cages were cleaned up with 70 % ethanol after each mouse.

V. harveyi BB7 [4] = test: Vibrio harveyi antimutagenicity assay (vs NQNO), BB7 strain; type: cell-based; conditions: for inhibition of NQNO-induced mutagenicity in BB7 strain (in words): NQNO 40 ng/ml; for Antimutagenicity BB7 number of revertants Mean ± SD: test compound plus NQNO 40 ng/ml (NQNO line: mutagen only); for Antimutagenicity BB7 Inhib. (%) of mutagenicity: test compound plus NQNO 40 ng/ml, 25–40 % moderate, 40 % or more strong
Experimental: (§3) Two V. harveyi strains were used in the experiments: wild-type BB7 and genetically modified BB7XM (the UV-hypersensitive strain bearing plasmid pAB91273), which were described previously by Czyż et al. ([2000]).
(§4) Antimutagenicity assay was performed according to previously described procedures (Czyż et al. [2002]; Pękala et al. [2013]). […] This was calculated as follows: Inhibition (%) = 100 − [(R1/R2) × 100], where R1 is the number of revertants per plate induced by test compound plus mutagen and R2 is the number of revertants in the plate containing only the mutagen (Słoczyńska et al. [2010]). No antimutagenic effect was considered when the inhibition was less than 25 %; a moderate effect for an inhibition value between 25 and 40 % and a strong antimutagenicity were recorded for inhibition higher than 40 % (Gulluce et al. [2010]).

mice [5] = test: Electroconvulsive threshold test (MEST test); type: in vivo, mouse
mice [6] = test: Hot plate test; type: in vivo, mouse; conditions: dose 30 mg/kg i.p.; for latency time to pain reaction: mean ± SEM, vehicle 27.51 ± 1.36 s, cutoff 60 s
Experimental: as §1, §2
In the hot plate test, the mice were i.p. pretreated either with the test compound or vehicle before placing the animal on the hot plate apparatus (Panlab/Harvard Apparatus, Spain). This apparatus has an electrically heated surface and is supplied with a temperature controller that maintains the temperature at 55–56 °C. The time to the first reaction (licking or jumping) of mice to a nociceptive stimulus was recorded. The cutoff time was established to 60 s to avoid paw tissue damage (Sałat et al. [2014]).

V. harveyi BB7 [7] = test: Vibrio harveyi mutagenicity assay, BB7 strain; conditions: 40 ng/ml; for Mutagenicity BB7 M.I. (mutagenic index): positive assay when M.I. ≥ 2
Experimental: as §3
(§5) Mutagenicity assay was performed as described previously (Czyż et al. [2000]). All experiments were carried out in triplicate and the results were expressed as mutagenic index (M.I. = the number of revertant colonies induced in the tested sample/the number of spontaneous revertants in the negative control) (Gulluce et al. [2010]).

V. harveyi BB7XM [8] = test: Vibrio harveyi mutagenicity assay, BB7XM strain; conditions: 40 ng/ml; for Mutagenicity BB7XM M.I. (mutagenic index): positive assay when M.I. ≥ 2
Experimental: as §3, §5

V. harveyi BB7XM [9] = test: Vibrio harveyi antimutagenicity assay (vs NQNO), BB7XM strain; type: cell-based; conditions: for Antimutagenicity BB7XM number of revertants Mean ± SD: test compound plus NQNO 40 ng/ml (NQNO line: mutagen only); for Antimutagenicity BB7XM Inhib. (%) of mutagenicity: test compound plus NQNO 40 ng/ml, 25–40 % moderate, 40 % or more strong
Experimental: as §3, §4

[10] = test system: L-type calcium channel (dihydropyridine site); test: L-type Ca channel (dihydropyridine site) [3H]nitrendipine binding assay; conditions: rat cerebral cortex
[11] = dose 100 mg/kg i.p., 4 h before pilocarpine 400 mg/kg
[12] = dose 30 mg/kg i.p., 30-min session
[13] = dose 30 mg/kg i.p., 4 h before the test, value with 95 % confidence interval
[14] = dose 100 mg/kg i.p., 4 h before pilocarpine

Compound	Latency to status epilepticus (s) ± SEM (mice [1]; [11])	reduction of the duration of the licking response, first (neurogenic) phase (mice [2])	antinociceptive effect (reduction of licking response), second (late) phase (mice [2])	influence on locomotor activity (number of crossings, in words) (mice [3]; [12])	inhibition of NQNO-induced mutagenicity in BB7 strain (in words) (V. harveyi BB7 [4])	Antimutagenicity BB7 number of revertants Mean ± SD (V. harveyi BB7 [4])	Antimutagenicity BB7 Inhib. (%) of mutagenicity (V. harveyi BB7 [4])	CS50 (mA) (CI) (mice [5]; [13])	latency time to pain reaction (mice [6])	Mutagenicity BB7 number of revertants Mean ± SD (V. harveyi BB7 [7])	Mutagenicity BB7 M.I. (mutagenic index) (V. harveyi BB7 [7])	Mutagenicity BB7XM number of revertants Mean ± SD (V. harveyi BB7XM [8])	Mutagenicity BB7XM M.I. (mutagenic index) (V. harveyi BB7XM [8])	Antimutagenicity BB7XM number of revertants Mean ± SD (V. harveyi BB7XM [9])	Antimutagenicity BB7XM Inhib. (%) of mutagenicity (V. harveyi BB7XM [9])	Anticonvulsant effect (%) (prolongation of latency time to seizures vs vehicle) (mice [1]; [14])	prolongation of latency time to pain reaction vs vehicle (mice [6])	also measured
CC1CC(=O)N(CN2CCN(c3cccc(C(F)(F)F)c3)CC2)C1=O (stereo not shown) [Compound 13, N-[{4-(3-trifluoromethylphenyl)-piperazin-1-yl}-methyl]-3-methylpyrrolidine-2,5-dione]	296.7 ± 9.63 s	79%	89%	significantly reduced the number of crossings	moderate inhibitors	25 ± 4	(35) %	9.37 (5.47–16.07)* mA	56.03 ± 1.75 s	22 ± 3	1.4	20 ± 5	1.7	20 ± 4	(16) %	–	–	–
N-[{4-(3-methylphenyl)-piperazin-1-yl}-methyl]-3-methylpyrrolidine-2,5-dione [Compound 15]	406.0 ± 59.77 s	52%	66%	–	–	–	–	8.11 (7.12–9.24)*** mA	47.12 ± 6.14 s	–	–	–	–	–	–	18.5%	71%	influence on locomotor activity (number of crossings, in words) (mice [3]; mouse, in vivo, ip, 30 mg/kg): significantly reduced the number of crossings
O=C1NC(=O)C(c2ccccc2)(c2ccccc2)N1 [Phenytoin, reference compound]	–	–	–	–	–	–	–	–	–	–	–	–	–	–	–	–	–	% inhibition of control specific binding ([10]; 10 μM): 6.6%; % inhibition of control specific binding ([10]; 100 μM): 57.8%
COC[C@@H](NC(C)=O)C(=O)NCc1ccccc1 [Lacosamide, reference compound]	–	69%	90%	significant decrease of locomotor activity	–	–	–	–	–	–	–	–	–	–	–	–	–	Anticonvulsant effect (%) (prolongation of latency time to seizures vs vehicle) (mice [1]; dose 30 mg/kg i.p., 30 min before pilocarpine): 12.8%; Latency to status epilepticus (s) ± SEM (mice [1]; dose 30 mg/kg i.p., 30 min before pilocarpine 400 mg/kg): 382.1 ± 22.86 s; Latency to status epilepticus (s) ± SEM (mice [1]; dose 40 mg/kg i.p., 30 min before pilocarpine 400 mg/kg): 507.7 ± 52.11 s; Anticonvulsant effect (%) (prolongation of latency time to seizures vs vehicle) (mice [1]; dose 40 mg/kg i.p., 30 min before pilocarpine, 40 mg/kg): 50% and 49.8%; CS50 (mA) (CI) (mice [5]; dose 10 mg/kg i.p., 30 min before the test, 10 mg/kg): >25 mA; CS50 (mA) (CI) (mice [5]; dose 10 mg/kg i.p., 30 min before the test, listed as lacosamide, 10 mg/kg): above 25 mA; antinociceptive activity in the hot plate test (in words) (mice [6]): significantly prolonged the latency time
O=C1CCC(=O)N1CN1CCN(c2cccc(C(F)(F)F)c2)CC1 [Compound 24, N-[{4-(3-trifluoromethylphenyl)-piperazin-1-yl}-methyl]-pyrrolidine-2,5-dione]	346.7 ± 25.92 s	62%	94%	significantly reduced the number of crossings	weakly suppressed	31 ± 5	(18) %	14.01 (9.05–21.70)*** mA	47.23 ± 3.77 s	25 ± 4	1.6	19 ± 1	1.6	29 ± 3	(0) %	1.2%	72%	increase of electroconvulsive threshold (ECT) vs vehicle (mice [5]; dose 10 mg/kg i.p., 4 h before the test): 68%; CS50 (mA) (CI) (mice [5]; dose 10 mg/kg i.p., 4 h before the test, value with 95 % confidence interval): 11.11 (8.12–15.20)*** mA; increase of electroconvulsive threshold (ECT) vs vehicle (mice [5]; dose 30 mg/kg i.p., 4 h before the test): 114%
